From patent US4764515A, “Antitussive and central sedative composition of d-isomer of 3-(4-phenyl-1-piperazinyl)-1,2-propanediol” (priority 1983, dated 1988) come the findings set out here.

The subject of one data set is 5% citric acid aerosol. In words: Antitussive activity in the guinea pig after exposure to 5% citric acid aerosol. The note with it: Cavia porcellus, po, read-out: DE50 5% Citric acid (antitussive effect). It counts as in vivo.
A further data set in a line: Acute toxicity, rat. The note with it: in vivo, 14 days from administration, C.L. 95%, read-out: DL50. The source says: (§1) Acute toxicity (at 14 days from the admi-
(§2) nistration) of (±) racemic dropropizine
(§3) (+) dextrorotatory isomer and (-) laevorotatory isomer

Data set [1] concerns electrical stimulation of the vagus nerv. In words: Antitussive activity in the guinea pig after electrical stimulation of the vagus nerve. Format: in vivo. Conditions: Cavia porcellus, iv, intravenously 5 min before electric stimulation, C.F. 95%, read-out: DE50 Electric stimulus (antitussive effect). Here is the method:
(§4) The results of the antitussive activity tests, carried out in the guinea pig after electrical stimulation of the vagus nerv and exposure for 5 minutes to a 5% citric acid aerosol according to the methods of R. M. Piekirning et al., Arzn.
(§5) The compounds under exam have been administered intravenously 5 minutes before the electric stimulation and orally 60 minutes before the citric acid aerosol.

The next data set is described as follows: Acute toxicity, mouse. Conditions: in vivo, 14 days from administration, C.L. 95%, read-out: DL50.
Source text: as §1, §2, §3

For the next data set, the system named is oedema by carrageenin. Kind of data set: Carrageenin oedema test in the rat (anti-inflammatory activity). Format: in vivo. The note with it: po, p.o. 1 h before phlogistic agent, C.L. 95%. The source says: (§6) Screening for anti-inflammatory activity has been carried out employing the established carrageenin and ovoalbumin oedema tests in the rat, according to the methods described by C. A. Winter et al., Proc. Soc. Exp. Biol. Med., 111, 544, 1962 and Turne in "Screening Methods in Pharmacology" Acad. Press N.Y., cpt. 14, p. 164, 1965, respectively.
(§7) The compounds under exam have been administered by the oral route one hour before the injection of the phlogistic agent.
(Carrageenan injected into the paw causes an acute inflammation.)

Data set [2] deals with Central Nervous System. Kind of data set: Electroencephalographic and electromiographic recording in the rat with chronically implanted electrodes (CNS activity). It counts as in vivo. Conditions: mean ± SE, controls 4.86 ± 0.60. The source says: (§8) Tests have been carried out to determine the CNS activity, by evaluating the influence on the sleeping time induced by barbiturates in the mouse, according to the method of F. M. Berger "Methods in Drug Evaluation" Proc. Int. Symp. Milan, September 1965, North Holland Pubbl. Co., and by recording the electroencephalographic and electromiographic curves in the rat with chronically implanted electrodes, calculating the time (in seconds) in the awakening and sleeping condition (including synchronized and unsynchronized sleep).
(§9) The compounds under exam have been administered orally, in the sleeping time test 30 minutes before the i.p. injection of 35 mg/kg of secobarbital, while in the electroencephalographic test at the beginning of recording.

Data set [3] has as its system antiinflammatory activity. In words: Antiinflammatory activity (overall statement). It counts as in vivo, rat. Conditions: in words.
Source text: as §6, §7

In data set [4] the test system is Central Nervous System. Kind of data set: Influence on the sleeping time induced by barbiturates in the mouse (CNS activity). It counts as in vivo. The note with it: 30 min before secobarbital 35 mg/kg i.p., mean ± SE, controls 22.58 ± 1.14.
Source text: as §8, §9

The next data set has as its system oedema by ovoalbumin. In words: Ovoalbumin oedema test in the rat (anti-inflammatory activity). It counts as in vivo. Conditions: po, p.o. 1 h before phlogistic agent, C.L. 95%.
Source text: as §6, §7

The test system of a further data set is antitussive activity. In words: Antitussive activity (overall statement). It counts as in vivo, guinea pig. The note with it: in words; versus racemic mixture; listed as laevorotatory isomer. Here is the method: as §4, §5
The mark [5] stands for this setting: guinea pig, orally 60 min before citric acid aerosol (5 min exposure), C.F. 95%.
Where [6] appears, read: 3 h, 3th hour, read-out: DE50 Oedema by carrageenin 3th hour.
Setting [7] is: 6 h, 6th hour, read-out: DE50 Oedema by carrageenin 6th hour.
[8] abbreviates: 1st hour, read-out: DE50 Oedema by carrageenin 1st hour.
The mark [9] stands for this setting: 3 h, 3th hour, read-out: DE50 Oedema by ovoalbumin 3th hour.
Setting [10] is: 6 h, 6th hour, read-out: DE50 Oedema by ovoalbumin 6th hour.
Setting [11] is: 1st hour, read-out: DE50 Oedema by ovoalbumin 1st hour.

Entries after “also recorded” stand apart in the source; their conditions may differ. Like-named read-outs stand apart in the source and are kept apart here.

Regarding `COc1ccc2c3c1O[C@H]1[C@@H](O)C=C[C@H]4[C@@H](C2)N(C)CC[C@@]341` [Codeine, codeine, reference compound], the ED50 with 5% citric acid aerosol came to 65.1 mg/kg.

`OC[C@H](O)CN1CCN(c2ccccc2)CC1` [(+), d-isomer of 3-(4-phenyl-1-piperazinyl)-1,2-propanediol]: the ED50 in the data set on 5% citric acid aerosol (setting [5]) was 141 mg/kg; in data set [1], 23.5 mg/kg; in the data set with oedema by carrageenin (setting [6]), 80.5 mg/kg; in the data set on oedema by carrageenin (setting [7]), 69.7 mg/kg; in the data set on oedema by carrageenin (setting [8]) it was 43.9 mg/kg. Also, the LD50 at 336 h worked out at 363 mg/kg in “Acute toxicity, rat” (ip); 721 mg/kg in the data set “Acute toxicity, rat” (po); 319 mg/kg in “Acute toxicity, mouse” (ip); 872 mg/kg in “Acute toxicity, mouse” (po). The results for the “Time spent in the sleeping condition” value in the data set with Central Nervous System [2] (25 mg/kg p.o.), with Central Nervous System [2] (50 mg/kg p.o.) and with Central Nervous System [2] (100 mg/kg p.o.) were 6.18 ± 0.72 s, 12.36 ± 0.9 s and 28.92 ± 1.7 s, respectively.

Take `OC[C@@H](O)CN1CCN(c2ccccc2)CC1` [(-), (-)-dropropizine]: the ED50 in the data set on 5% citric acid aerosol (setting [5]) was determined as 151 mg/kg; in data set [1], 13.5 mg/kg; in the data set on oedema by carrageenin (setting [6]), 212 mg/kg; with oedema by carrageenin (setting [7]), 241 mg/kg; with oedema by carrageenin (setting [8]), 233 mg/kg; in the data set on oedema by ovoalbumin (setting [9]), 72.2 mg/kg. Besides, the ED50 in the data set with oedema by ovoalbumin (setting [10]) came out at 121 mg/kg; in the data set with oedema by ovoalbumin (setting [11]), 55.6 mg/kg. The LD50 at 336 h in the data set “Acute toxicity, rat” (ip) was found to be 401 mg/kg; in the data set “Acute toxicity, rat” (po), 887 mg/kg; in “Acute toxicity, mouse” (ip), 408 mg/kg; in the data set “Acute toxicity, mouse” (po), 1290 mg/kg. In addition, the antiinflammatory activity result in data set [3] is “unchanged antitussive and antiinflammatory activity”. The “Duration of the sleeping time induced by barbiturates” value in the data set on Central Nervous System [4] (50 mg/kg p.o.) worked out at 29.5 ± 2.59 min; in the data set with Central Nervous System [4] (100 mg/kg p.o.), 54.4 ± 7.36 min; in the data set on Central Nervous System [4] (200 mg/kg p.o.), 128.83 ± 17.14 min. The results for the “Time spent in the sleeping condition” value in the data set on Central Nervous System [2] (25 mg/kg p.o.), with Central Nervous System [2] (50 mg/kg p.o.) and with Central Nervous System [2] (100 mg/kg p.o.) were 5.8 ± 0.84 s, 5.7 ± 0.48 s and 13.68 ± 1.80 s, respectively. Besides, the antitussive activity entry with antitussive activity is “unchanged antitussive and antiinflammatory activity; also recorded: same antitussive activity as the racemic mixture”.

For the molecule `OCC(O)CN1CCN(c2ccccc2)CC1` (racemic) [(±), 3-(4-phenyl-1-piperazinyl)-1,2-propanediol], the ED50 in the data set with 5% citric acid aerosol (setting [5]) is 117 mg/kg; in data set [1], 11.7 mg/kg; in the data set on oedema by carrageenin (setting [6]) it was 77.9 mg/kg; in the data set on oedema by carrageenin (setting [7]), 117 mg/kg; in the data set on oedema by carrageenin (setting [8]), 39 mg/kg; with oedema by ovoalbumin (setting [9]), 28.5 mg/kg. For the same molecule, the ED50 in the data set with oedema by ovoalbumin (setting [10]) came to 37.1 mg/kg; in the data set on oedema by ovoalbumin (setting [11]), 23.6 mg/kg. For the same molecule, the LD50 at 336 h in “Acute toxicity, rat” (ip) amounted to 393 mg/kg; in the data set “Acute toxicity, rat” (po) it was 607 mg/kg; in “Acute toxicity, mouse” (ip), 340 mg/kg; in “Acute toxicity, mouse” (po) it was 900 mg/kg. Besides, the “Duration of the sleeping time induced by barbiturates” value with Central Nervous System [4] (50 mg/kg p.o.) stood at 118.83 ± 25.69 min; in the data set with Central Nervous System [4] (100 mg/kg p.o.) it was 132.33 ± 13.16 min; with Central Nervous System [4] (200 mg/kg p.o.), 134.16 ± 17.55 min.
